Legend:
[1] = tested on: oxidatively modified low density lipoprotein (LDL); assay: porcine aortic endothelial cell mediated LDL oxidation assay (TBARS method); assay type: cell-based; conditions: pocine aortic endothelial cell mediated oxidation of LDL
Excerpt: (§1) The antioxidant properties of 17β-dihydroequilenin were established in a standard pharmacological test procedure that measured the its ability to inhibit the formation of oxidatively modified low density lipoprotein (LDL) induced by exposure to either Cu++ ions or cultured endothelial cells (Parthasarathy S, Proc Natl Acad Sci USA 86:1046–1050 (1989)) by the TBARS (thiobarbituric acid reactive substances) method for analysis of free aldehydes (Yagi K., Biochem Med 15:212–216 (1976)).

[2] = tested on: oxidatively modified low density lipoprotein (LDL); assay: inhibition of LDL oxidation induced by Cu++ ions or cultured endothelial cells (TBARS method); conditions: maximal inhibition of the process
Excerpt: as §1

| SMILES | IC50 [1] [nM] | inhibition of LDL oxidation [2] |
| --- | --- | --- |
| C[C@]12CC[C@@H]3c4ccc(O)cc4CC[C@H]3[C@@H]1CCC2=O [estrone, reference compound] | 560 | – |
| C[C@]12CCc3c(ccc4cc(O)ccc34)[C@@H]1CC[C@@H]2O [17β-dihydroequilenin] | 315 | up to 100% |

— patent US7022688B1, “Use of 17β-dihydroequilenin as an antioxidant” (Wyeth, priority 1996, dated 2006)
